In US12344610B2, “APOL1 inhibitors and methods of use” (Maze Therapeutics, Inc., priority 2022, dated 2025):

Key:
APOL1 G2 = target: T1, APOL1 G2 (Homo sapiens, UniProt O14791, DEL388-389); experiment: APOL1-mediated calcium transport (calcium influx) assay, HEK T-REx/GCaMP6f/APOL1 G2 K6.3 cells, FLIPR TETRA; format: cell-based; conditions: prevention of calcium influx; geometric mean of at least 2 assay runs; † = average of a technical replicate from a single assay run
T1 construct: expressed in transfected cells; host or cells: HEK293 T-REx clonal line stably expressing GCaMP6f (HEK T-REx/GCaMP6f/APOL1 G2 K6.3), doxycycline induced
T1 sequence (O14791 with tags, fused parts or gaps DEL388-389): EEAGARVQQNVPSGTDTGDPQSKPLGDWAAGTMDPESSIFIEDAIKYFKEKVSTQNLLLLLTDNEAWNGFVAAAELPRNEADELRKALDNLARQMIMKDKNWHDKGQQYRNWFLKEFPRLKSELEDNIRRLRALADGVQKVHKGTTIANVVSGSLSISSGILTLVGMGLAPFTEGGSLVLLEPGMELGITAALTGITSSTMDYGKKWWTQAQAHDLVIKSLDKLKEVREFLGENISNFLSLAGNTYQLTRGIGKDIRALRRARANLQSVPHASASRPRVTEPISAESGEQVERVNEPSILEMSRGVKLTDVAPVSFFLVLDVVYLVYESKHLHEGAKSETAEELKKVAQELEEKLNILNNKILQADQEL
Procedure, shortened: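 A HEK293 T-REx clone stably expressing GCaMP6f had APOL1 G2 induced with doxycycline (20 ng/mL solution added) for 6 h. Cells were then washed into Ca2+-free Tyrode's buffer (pH 7.4) and preincubated with compounds (duplicate 8-point) for 10 min at room temperature. Ca2+ injection to 5 mM final produced FLIPR GCaMP fluorescence, giving AC50 for influx inhibition (geometric mean, ≥2 runs).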

[1] = system: HEK293 cells overexpressing APOL1 G2; experiment: APOL1 G2 HEK293 cell rescue assay (reversal of cell death caused by overexpression of APOL1); format: cell-based; conditions: Homo sapiens, HEK293, HEK293 overexpressing APOL1 G2; geometric mean of at least 2 assay runs; † = single assay run
Procedure, shortened: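 Each compound tested in duplicate wells on one plate per run, with values usually the geometric mean across at least two runs on different days, occasionally from one run only. Read-out: concentration giving half-maximal rescue of APOL1 G2 overexpression-induced death of HEK293 cells.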

CC(C)N1C(=O)Cc2cc(OCCN3CCC4(CC3)C(=O)Nc3ccc(C#N)cc34)ccc21 [Compound 144, 2-oxo-1′-(2-{[2-oxo-1-(propan-2-yl)-2,3-dihydro-1H-indol-5-yl]oxy}ethyl)-1,2-dihydrospiro[indole-3,4′-piperidine]-5-carbonitrile]
AC50 (APOL1 G2): 0.708 µM | EC50 [1]: 0.081 µM

CC(C)N1C(=O)Cc2cc(OCCN3CCC4(CC3)C(=O)Nc3ccc(Cl)cc34)ccc21 [Compound 145, 5-chloro-1′-(2-{[2-oxo-1-(propan-2-yl)-2,3-dihydro-1H-indol-5-yl]oxy}ethyl)-1,2-dihydrospiro[indole-3,4′-piperidin]-2-one]
AC50 (APOL1 G2): 0.465 µM | EC50 [1]: 0.0504 µM

CN1Cc2cc(OCCN3CCC4(CC3)C(=O)Nc3ccc(Cl)cc34)ccc2C1=O [Compound 146, 5-chloro-1′-{2-[(2-methyl-1-oxo-2,3-dihydro-1H-isoindol-5-yl)oxy]ethyl}-1,2-dihydrospiro[indole-3,4′-piperidin]-2-one]
AC50 (APOL1 G2): 0.279 µM | EC50 [1]: 0.121 µM

CN=S(C)(=O)c1ccc(OCCN2CCC3(CC2)C(=O)Nc2ccc(Cl)cc23)cc1 (centres unmarked) [Compound 147, 5-chloro-1′-(2-{4-[methyl(methylimino)oxo-λ^6-sulfanyl]phenoxy}ethyl)-1,2-dihydrospiro[indole-3,4′-piperidin]-2-one]
AC50 (APOL1 G2): 0.492 µM | EC50 [1]: 0.0631 µM

CN=S(C)(=O)c1ccc(OCCN2CCC3(CC2)C(=O)Nc2ccc(C#N)cc23)cc1 (centres unmarked) [Compound 150, 1′-(2-{4-[methyl(methylimino)oxo-λ^6-sulfanyl]phenoxy}ethyl)-2-oxo-1,2-dihydrospiro[indole-3,4′-piperidine]-5-carbonitrile]
AC50 (APOL1 G2): 0.629 µM | EC50 [1]: 0.228 µM

CN1CCc2cc(OCCN3CCC4(CC3)C(=O)Nc3ccc(Cl)cc34)ccc2S1(=O)=O [Compound 153, 6-(2-{5-chloro-2-oxo-1,2-dihydrospiro[indole-3,4′-piperidin]-1′-yl}ethoxy)-2-methyl-3,4-dihydro-2H-1λ^6,2-benzothiazine-1,1-dione]
AC50 (APOL1 G2): 0.826 µM | EC50 [1]: 0.0221 µM

CN1CCc2cc(OCCN3CCC4(CC3)C(=O)Nc3ccc(C#N)cc34)ccc2S1(=O)=O [Compound 154, 1′-{2-[(2-methyl-1,1-dioxo-3,4-dihydro-2H-1λ^6,2-benzothiazin-6-yl)oxy]ethyl}-2-oxo-1,2-dihydrospiro[indole-3,4′-piperidine]-5-carbonitrile]
AC50 (APOL1 G2): 0.869 µM | EC50 [1]: 0.0671 µM

CS(=O)(=O)c1ccc(OCCN2CCC3(CC2)C(=O)Nc2ccc(Cl)cc23)cc1Cl [Compound 155, 5-chloro-1′-[2-(3-chloro-4-methanesulfonylphenoxy)ethyl]-1,2-dihydrospiro[indole-3,4′-piperidin]-2-one]
AC50 (APOL1 G2): 0.452 µM | EC50 [1]: 0.0262 µM

CS(=O)(=O)c1ccc(OCCN2CCC3(CC2)C(=O)Nc2ccc(C#N)cc23)cc1Cl [Compound 156, 1′-[2-(3-chloro-4-methanesulfonylphenoxy)ethyl]-2-oxo-1,2-dihydrospiro[indole-3,4′-piperidine]-5-carbonitrile]
AC50 (APOL1 G2): 0.468 µM | EC50 [1]: 0.0559 µM

CC(C)(C#N)c1ccc(OCCN2CCC3(CC2)C(=O)Nc2ccc(C#N)cc23)cc1 [Compound 157, 1′-{2-[4-(1-cyano-1-methylethyl)phenoxy]ethyl}-2-oxo-1,2-dihydrospiro[indole-3,4′-piperidine]-5-carbonitrile]
AC50 (APOL1 G2): 0.933 µM | EC50 [1]: 0.0504 µM

CC1(S(=O)(=O)c2ccc(OCCN3CCC4(CC3)C(=O)Nc3ccc(Cl)cc34)cn2)COC1 [Compound 158, 5-chloro-1′-[2-({6-[(3-methyloxetan-3-yl)sulfonyl]pyridin-3-yl}oxy)ethyl]-1,2-dihydrospiro[indole-3,4′-piperidin]-2-one]
AC50 (APOL1 G2): 0.845 µM | EC50 [1]: 0.0657 µM

CS(=O)(=O)C1(c2ccc(OCCN3CCC4(CC3)C(=O)N(CCO)c3ccc(Cl)cc34)cc2)COC1 [Compound 160, 5-chloro-1-(2-hydroxyethyl)-1′-{2-[4-(3-methanesulfonyloxetan-3-yl)phenoxy]ethyl}-1,2-dihydrospiro[indole-3,4′-piperidin]-2-one]
AC50 (APOL1 G2): 0.898 µM | EC50 [1]: 0.0754 µM

Cc1cc(OCCN2CCC3(CC2)C(=O)Nc2ccc(Cl)cc23)cnc1S(C)(=O)=O [Compound 161, 5-chloro-1′-{2-[(6-methanesulfonyl-5-methylpyridin-3-yl)oxy]ethyl}-1,2-dihydrospiro[indole-3,4′-piperidin]-2-one]
AC50 (APOL1 G2): 0.539 µM | EC50 [1]: 0.0464 µM

O=C1CCc2cc(OCCN3CCC4(CC3)C(=O)Nc3ccc(Cl)cc34)ccc2N1CCO [Compound 162, 5-chloro-1′-(2-{[1-(2-hydroxyethyl)-2-oxo-1,2,3,4-tetrahydroquinolin-6-yl]oxy}ethyl)-1,2-dihydrospiro[indole-3,4′-piperidin]-2-one]
AC50 (APOL1 G2): 0.603 µM | EC50 [1]: 0.0571 µM

CS(=O)(=O)c1ccc(OCCN2CCC3(CC2)C(=O)Nc2ccc(Cl)cc23)cc1OC(F)F [Compound 163, 5-chloro-1′-{2-[3-(difluoromethoxy)-4-methanesulfonylphenoxy]ethyl}-1,2-dihydrospiro[indole-3,4′-piperidin]-2-one]
AC50 (APOL1 G2): 0.528 µM | EC50 [1]: 0.0246 µM

CS(=O)(=O)c1ccc(OCCN2CCC3(CC2)C(=O)Nc2ccc(C#N)cc23)cc1OC(F)F [Compound 164, 1′-{2-[3-(difluoromethoxy)-4-methanesulfonylphenoxy]ethyl}-2-oxo-1,2-dihydrospiro[indole-3,4′-piperidine]-5-carbonitrile]
AC50 (APOL1 G2): 0.555 µM | EC50 [1]: 0.103 µM

CS(=O)(=O)C1(c2ccc(OCCN3CCC4(CC3)C(=O)Nc3ccc(Cl)cc34)cc2C(F)(F)F)COC1 [Compound 165, 5-chloro-1′-{2-[4-(3-methanesulfonyloxetan-3-yl)-3-(trifluoromethyl)phenoxy]ethyl}-1,2-dihydrospiro[indole-3,4′-piperidin]-2-one]
AC50 (APOL1 G2): 0.558 µM | EC50 [1]: 0.0212 µM

CS(=O)(=O)C1(c2ccc(OCCN3CCC4(CC3)C(=O)Nc3ccc(C#N)cc34)cc2C(F)(F)F)COC1 [Compound 166, 1′-{2-[4-(3-methanesulfonyloxetan-3-yl)-3-(trifluoromethyl)phenoxy]ethyl}-2-oxo-1,2-dihydrospiro[indole-3,4′-piperidine]-5-carbonitrile]
AC50 (APOL1 G2): 0.618 µM | EC50 [1]: 0.0561 µM

O=C1Nc2ccc(Cl)cc2C12CCN(CCOc1ccc3c(c1)CCNS3(=O)=O)CC2 [Compound 167, 6-(2-{5-chloro-2-oxo-1,2-dihydrospiro[indole-3,4′-piperidin]-1′-yl}ethoxy)-3,4-dihydro-2H-1λ^6,2-benzothiazine-1,1-dione]
AC50 (APOL1 G2): 0.467 µM | EC50 [1]: 0.0427 µM

N#Cc1ccc2c(c1)C1(CCN(CCOc3ccc4c(c3)CCNS4(=O)=O)CC1)C(=O)N2 [Compound 168, 1′-{2-[(1,1-dioxo-3,4-dihydro-2H-1λ^6,2-benzothiazin-6-yl)oxy]ethyl}-2-oxo-1,2-dihydrospiro[indole-3,4′-piperidine]-5-carbonitrile]
AC50 (APOL1 G2): 1.39 µM | EC50 [1]: 0.343 µM

CN1C(=O)Cc2cc(OCCN3CCC4(CC3)C(=O)Nc3ccc(C#N)cc34)cc(F)c21 [Compound 169, 1′-{2-[(7-fluoro-1-methyl-2-oxo-2,3-dihydro-1H-indol-5-yl)oxy]ethyl}-2-oxo-1,2-dihydrospiro[indole-3,4′-piperidine]-5-carbonitrile]
AC50 (APOL1 G2): 1.21 µM | EC50 [1]: 0.247 µM

CC1(Oc2ncc(OCCN3CCC4(CC3)C(=O)Nc3ccc(Cl)cc34)cn2)COC1 [Compound 172, 5-chloro-1′-[2-({2-[(3-methyloxetan-3-yl)oxy]pyrimidin-5-yl}oxy)ethyl]-1,2-dihydrospiro[indole-3,4′-piperidin]-2-one]
AC50 (APOL1 G2): 0.479 µM | EC50 [1]: 0.0991 µM

CCS(=O)(=O)C1(c2ccc(OCCN3CCC4(CC3)C(=O)Nc3ccc(C#N)cc34)cc2)COC1 [Compound 174, 1′-(2-{4-[3-(ethanesulfonyl)oxetan-3-yl]phenoxy}ethyl)-2-oxo-1,2-dihydrospiro[indole-3,4′-piperidine]-5-carbonitrile]
AC50 (APOL1 G2): 0.484 µM | EC50 [1]: 0.104 µM

CS(=O)(=O)C1(c2ccc(OCCN3CCC4(CC3)C(=O)Nc3ccc(Cl)cc34)cc2)CCC1 [Compound 180, 5-chloro-1′-{2-[4-(1-methanesulfonylcyclobutyl)phenoxy]ethyl}-1,2-dihydrospiro[indole-3,4′-piperidin]-2-one]
AC50 (APOL1 G2): 0.756 µM | EC50 [1]: 0.0221 µM

CS(=O)(=O)C1(c2ccc(OCCN3CCC4(CC3)C(=O)Nc3ccc(C#N)cc34)cc2)CCC1 [Compound 181, 1′-{2-[4-(1-methanesulfonylcyclobutyl)phenoxy]ethyl}-2-oxo-1,2-dihydrospiro[indole-3,4′-piperidine]-5-carbonitrile]
AC50 (APOL1 G2): 0.656 µM | EC50 [1]: 0.0445 µM
